In ChEMBL document CHEMBL3860101, “Targeting the Nerve Growth Factor (NGF) Pathway in Drug Discovery. Potential Applications to New Therapies for Chronic Pain” (J Med Chem, 2017):
One block for each compound: values may come before it.

Tests used:
[1] = biological target: T1, High affinity nerve growth factor receptor (Homo sapiens, UniProt P04629); test: Inhibition of His-tagged recombinant human TrkA using Alexa-Fluor tracer-236 incubated for 60 mins by TR-FRET based Lantha-screen Eu kinase binding assay
Target sequence in this assay (P04629 whole entry): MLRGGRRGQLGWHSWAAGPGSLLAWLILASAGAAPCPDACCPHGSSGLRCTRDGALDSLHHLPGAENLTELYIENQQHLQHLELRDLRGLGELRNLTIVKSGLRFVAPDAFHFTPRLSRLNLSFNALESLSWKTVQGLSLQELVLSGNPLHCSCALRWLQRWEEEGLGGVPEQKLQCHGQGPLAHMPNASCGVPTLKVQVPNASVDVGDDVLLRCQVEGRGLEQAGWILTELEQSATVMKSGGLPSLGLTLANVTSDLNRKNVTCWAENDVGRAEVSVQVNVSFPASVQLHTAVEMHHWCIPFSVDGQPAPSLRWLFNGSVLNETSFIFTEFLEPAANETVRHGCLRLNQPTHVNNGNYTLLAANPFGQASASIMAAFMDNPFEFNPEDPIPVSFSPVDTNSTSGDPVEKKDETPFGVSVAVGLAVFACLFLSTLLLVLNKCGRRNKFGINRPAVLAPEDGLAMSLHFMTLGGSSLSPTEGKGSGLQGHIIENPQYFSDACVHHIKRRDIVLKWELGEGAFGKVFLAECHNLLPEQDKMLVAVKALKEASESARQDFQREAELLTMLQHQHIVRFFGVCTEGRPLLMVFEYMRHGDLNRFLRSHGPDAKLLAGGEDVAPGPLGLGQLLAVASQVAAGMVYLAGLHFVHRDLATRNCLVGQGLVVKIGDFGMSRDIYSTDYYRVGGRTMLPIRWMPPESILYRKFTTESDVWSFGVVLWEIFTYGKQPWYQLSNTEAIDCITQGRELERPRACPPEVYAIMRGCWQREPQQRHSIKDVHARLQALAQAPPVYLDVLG

[2] = biological target: T2, BDNF/NT-3 growth factors receptor (Homo sapiens, UniProt Q16620); test: Inhibition of His6 tagged human recombinant TrkB (455 to end amino acids) expressed in Sf21 cells at 10 uM
Target sequence in this assay (Q16620 32-822 limits assumed): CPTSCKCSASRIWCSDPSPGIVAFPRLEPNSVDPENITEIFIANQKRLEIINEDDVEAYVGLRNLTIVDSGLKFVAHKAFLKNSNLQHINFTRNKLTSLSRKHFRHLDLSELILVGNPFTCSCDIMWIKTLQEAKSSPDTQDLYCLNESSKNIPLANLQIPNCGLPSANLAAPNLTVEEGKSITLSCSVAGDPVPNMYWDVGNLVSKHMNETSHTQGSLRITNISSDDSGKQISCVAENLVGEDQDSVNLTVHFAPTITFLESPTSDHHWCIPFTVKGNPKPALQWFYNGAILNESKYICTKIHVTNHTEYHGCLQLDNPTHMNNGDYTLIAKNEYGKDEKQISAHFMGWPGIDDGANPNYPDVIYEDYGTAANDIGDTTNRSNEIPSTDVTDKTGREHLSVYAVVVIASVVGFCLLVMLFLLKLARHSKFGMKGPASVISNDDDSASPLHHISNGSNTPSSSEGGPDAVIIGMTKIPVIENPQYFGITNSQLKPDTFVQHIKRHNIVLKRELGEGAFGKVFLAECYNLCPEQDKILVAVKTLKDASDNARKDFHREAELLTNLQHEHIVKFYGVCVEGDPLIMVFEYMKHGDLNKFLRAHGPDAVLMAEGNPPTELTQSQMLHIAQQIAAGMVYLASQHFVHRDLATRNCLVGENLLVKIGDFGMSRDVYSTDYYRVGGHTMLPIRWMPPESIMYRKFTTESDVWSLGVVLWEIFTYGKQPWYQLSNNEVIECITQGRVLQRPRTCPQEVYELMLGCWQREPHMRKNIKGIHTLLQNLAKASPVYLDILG

[3] = biological target: T3, Tumor necrosis factor receptor superfamily member 16 (Homo sapiens) (UniProt P08138); test: Inhibition of mouse NGF binding to p75 (unknown origin) by SPR method relative to control
T3 sequence (whole entry): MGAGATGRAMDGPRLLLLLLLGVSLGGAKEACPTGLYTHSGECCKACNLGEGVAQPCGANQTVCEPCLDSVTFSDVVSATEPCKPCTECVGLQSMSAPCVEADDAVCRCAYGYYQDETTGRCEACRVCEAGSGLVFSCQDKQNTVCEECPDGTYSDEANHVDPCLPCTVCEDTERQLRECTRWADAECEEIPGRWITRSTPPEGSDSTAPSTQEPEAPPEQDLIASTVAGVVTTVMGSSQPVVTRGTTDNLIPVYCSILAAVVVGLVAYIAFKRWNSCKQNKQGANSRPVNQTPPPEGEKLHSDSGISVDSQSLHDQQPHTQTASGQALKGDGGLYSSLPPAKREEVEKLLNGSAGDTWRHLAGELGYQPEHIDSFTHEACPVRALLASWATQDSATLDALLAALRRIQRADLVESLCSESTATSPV

[4] = biological target: T1, High affinity nerve growth factor receptor; test: Inhibition of mouse NGF binding to TrkA (unknown origin) by SPR method relative to control
Target sequence in this assay (P04629 33-796 limits assumed): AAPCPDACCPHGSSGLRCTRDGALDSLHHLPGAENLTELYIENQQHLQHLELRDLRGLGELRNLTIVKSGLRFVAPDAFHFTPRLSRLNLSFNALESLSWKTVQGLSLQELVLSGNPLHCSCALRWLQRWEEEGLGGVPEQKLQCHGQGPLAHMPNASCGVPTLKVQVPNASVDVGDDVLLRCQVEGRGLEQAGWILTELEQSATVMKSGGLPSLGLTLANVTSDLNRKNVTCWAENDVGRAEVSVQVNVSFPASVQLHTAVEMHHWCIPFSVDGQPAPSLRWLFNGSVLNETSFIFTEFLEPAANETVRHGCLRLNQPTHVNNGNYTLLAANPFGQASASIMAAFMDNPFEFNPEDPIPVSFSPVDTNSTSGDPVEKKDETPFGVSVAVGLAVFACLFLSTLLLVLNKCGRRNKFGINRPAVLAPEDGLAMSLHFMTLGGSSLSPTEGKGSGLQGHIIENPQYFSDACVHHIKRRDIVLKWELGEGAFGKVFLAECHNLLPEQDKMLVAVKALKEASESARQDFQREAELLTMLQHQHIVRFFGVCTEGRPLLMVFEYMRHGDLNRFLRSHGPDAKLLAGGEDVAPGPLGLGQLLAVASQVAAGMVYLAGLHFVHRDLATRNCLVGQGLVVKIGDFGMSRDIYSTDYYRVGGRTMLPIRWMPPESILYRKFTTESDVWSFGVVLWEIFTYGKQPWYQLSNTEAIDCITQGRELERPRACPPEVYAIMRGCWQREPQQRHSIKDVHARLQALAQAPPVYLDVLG

Beta-nerve growth factor = Beta-nerve growth factor (Mus musculus, UniProt P01139); test: Inhibition of mouse NGF binding to TrkA (unknown origin) by SPR method; set-up: species or system Homo sapiens
[5] = biological target: T4, Tumor necrosis factor receptor superfamily member 16 (Homo sapiens, UniProt P08138); test: Inhibition of mouse NGF binding to p75 (unknown origin) by SPR method
T4 sequence (P08138 whole entry): T3 sequence (whole entry)

[6] = biological target: NT-3 growth factor receptor (Homo sapiens, UniProt Q16288); test: Inhibition of NT3-stimulated TrkC phosphorylation in human U2OS cells by beta-galactosidase reporter gene based PathHunter profiling assay; format: cell-based
[7] = biological target: T1, High affinity nerve growth factor receptor; test: Inhibition of NGF-stimulated TrkA phosphorylation in human U2OS cells by beta-galactosidase reporter gene based PathHunter profiling assay; format: cell-based
Target sequence in this assay (P04629 whole entry): as the sequence (P04629 whole entry) above

[8] = biological target: T2, BDNF/NT-3 growth factors receptor; test: Inhibition of BDNF-stimulated TrkB phosphorylation in human U2OS cells by beta-galactosidase reporter gene based PathHunter profiling assay; format: cell-based
Target sequence in this assay (Q16620 whole entry): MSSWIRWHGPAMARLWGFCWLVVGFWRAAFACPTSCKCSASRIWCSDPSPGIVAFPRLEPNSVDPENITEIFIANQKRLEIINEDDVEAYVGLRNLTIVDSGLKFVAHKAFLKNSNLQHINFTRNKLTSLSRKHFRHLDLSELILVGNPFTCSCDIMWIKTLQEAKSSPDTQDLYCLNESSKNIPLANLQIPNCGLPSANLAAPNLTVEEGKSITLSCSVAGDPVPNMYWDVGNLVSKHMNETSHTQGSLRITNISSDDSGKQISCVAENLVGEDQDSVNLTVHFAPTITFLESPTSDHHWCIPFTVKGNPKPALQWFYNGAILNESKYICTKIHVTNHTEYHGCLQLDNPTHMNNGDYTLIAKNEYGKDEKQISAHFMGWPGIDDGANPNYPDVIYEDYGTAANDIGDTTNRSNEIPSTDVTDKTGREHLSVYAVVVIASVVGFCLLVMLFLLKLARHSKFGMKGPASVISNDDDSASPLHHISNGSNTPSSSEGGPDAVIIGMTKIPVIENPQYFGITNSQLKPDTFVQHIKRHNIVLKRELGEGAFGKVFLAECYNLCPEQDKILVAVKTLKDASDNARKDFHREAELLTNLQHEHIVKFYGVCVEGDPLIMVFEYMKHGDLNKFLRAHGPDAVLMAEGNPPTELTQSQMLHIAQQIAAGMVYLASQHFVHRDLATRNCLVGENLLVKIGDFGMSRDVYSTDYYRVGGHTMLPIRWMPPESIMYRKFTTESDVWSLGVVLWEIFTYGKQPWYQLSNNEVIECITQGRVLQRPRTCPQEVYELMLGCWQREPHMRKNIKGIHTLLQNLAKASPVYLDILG

[9] = biological target: T1, High affinity nerve growth factor receptor; test: Inhibition of N-terminal GST tagged human TrkA cytoplasmic domain (436 to 790 amino acids) pre-incubated for 15 mins before peptide substrate addition for 180 mins by fluorescence based assay
Target sequence in this assay (P04629 whole entry): as the sequence (P04629 whole entry) above

[10] = biological target: T2, BDNF/NT-3 growth factors receptor; test: Inhibition of N-terminal GST tagged human TrkB cytoplasmic domain (456 to 822 amino acids) pre-incubated for 15 mins before peptide substrate addition for 180 mins by fluorescence based assay
Target sequence in this assay (Q16620 whole entry): as the sequence (Q16620 whole entry) above

P-gp = test: Binding affinity to P-gp (unknown origin) assessed as efflux ratio by cell based assay; format: ADME; details: human, not told
[11] = biological target: T1, High affinity nerve growth factor receptor; test: Inhibition of TrkA (unknown origin) by cell based assay
Target sequence in this assay (P04629 whole entry): as the sequence (P04629 whole entry) above

Rattus norvegicus [12] = test: Inhibition of mechanical allodynia ip dosed rat model of L5/L6 nerve ligation injury; format: functional
Rattus norvegicus [13] = test: Inhibition of mechanical allodynia in it dosed rat model of L5/L6 nerve ligation injury; format: functional
[14] = biological target: T5, High affinity nerve growth factor receptor (Rattus norvegicus, UniProt P35739); test: Inhibition of NGF-induced TrkA auto-phosphorylation in rat PC12 cells incubated for 15 mins by chemiluminescence based method; format: cell-based, PC-12
[15] = biological target: T5, High affinity nerve growth factor receptor; test: Inhibition of binding of [125I]-NGF to TrkA in rat PC12 cells incubated for 2 hrs by gamma counting method; format: cell-based, PC-12
Rattus norvegicus [16] = test: Inhibition of thermal sensitization-induced tactile allodynia in it dosed rat model of L5/L6 nerve ligation injury; format: functional

Sequence of Beta-nerve growth factor (P01139 whole entry, looked up): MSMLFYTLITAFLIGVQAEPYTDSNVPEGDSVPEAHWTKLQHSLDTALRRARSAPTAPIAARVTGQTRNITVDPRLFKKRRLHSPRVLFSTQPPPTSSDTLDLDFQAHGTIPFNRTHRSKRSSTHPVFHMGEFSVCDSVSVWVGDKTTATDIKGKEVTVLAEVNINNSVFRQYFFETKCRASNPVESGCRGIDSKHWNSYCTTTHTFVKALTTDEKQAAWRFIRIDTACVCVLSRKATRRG
T5 sequence (P35739 whole entry): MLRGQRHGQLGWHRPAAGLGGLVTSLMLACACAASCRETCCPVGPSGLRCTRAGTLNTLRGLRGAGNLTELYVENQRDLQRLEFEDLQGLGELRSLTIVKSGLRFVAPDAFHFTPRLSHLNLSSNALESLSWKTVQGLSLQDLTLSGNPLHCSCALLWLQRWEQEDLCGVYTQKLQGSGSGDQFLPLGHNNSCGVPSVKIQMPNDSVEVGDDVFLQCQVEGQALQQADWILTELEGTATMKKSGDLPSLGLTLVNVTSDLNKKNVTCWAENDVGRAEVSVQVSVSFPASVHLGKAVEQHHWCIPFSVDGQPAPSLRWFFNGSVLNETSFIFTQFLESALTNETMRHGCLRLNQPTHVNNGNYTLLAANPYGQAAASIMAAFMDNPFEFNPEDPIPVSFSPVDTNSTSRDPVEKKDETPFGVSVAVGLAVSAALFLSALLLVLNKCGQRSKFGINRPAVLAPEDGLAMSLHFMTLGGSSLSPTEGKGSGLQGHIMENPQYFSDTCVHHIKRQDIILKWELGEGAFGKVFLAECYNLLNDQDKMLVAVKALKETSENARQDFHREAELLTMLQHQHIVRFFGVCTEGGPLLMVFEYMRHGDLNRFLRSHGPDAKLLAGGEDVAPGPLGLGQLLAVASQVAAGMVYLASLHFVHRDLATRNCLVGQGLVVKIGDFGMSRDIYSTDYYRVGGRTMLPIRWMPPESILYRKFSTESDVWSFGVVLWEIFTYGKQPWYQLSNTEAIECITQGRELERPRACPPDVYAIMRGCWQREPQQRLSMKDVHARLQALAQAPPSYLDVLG

Compound: Cc1c(-c2cnn(C)c2)nn(-c2ccccc2)c1NC(=O)Nc1sc(C(F)(F)F)nc1-c1ccccc1
IC50 [1]: < 100 nM
inhibition [2]: 97%

Compound: Cn1c2c(N)cc(N)cc2c(=O)n2nc(C(=O)O)c([N+](=O)[O-])c12
Imax [3]: 70%

Compound: COCc1ccc2cccc(NC(=O)Nc3c(C)c(-c4cnn(C)c4)nn3-c3ccccc3)c2c1
IC50 [1]: < 100 nM
inhibition [2]: 91%

Compound: COc1ccc(C(=O)c2cn(C(C)C)c3ncnc(N)c23)cc1NC(=O)Nc1ccc(Cl)cc1Cl [CE-245677]
efflux ratio (P-gp): 1

Compound: Cc1c(-c2cnn(C)c2)nn(-c2ccccc2)c1NC(=O)Nc1cc(C(F)(F)F)nn1-c1ccccc1
IC50 [1]: < 100 nM

Compound: Cn1c2ccc(NC(=O)c3ccccc3)cc2c(=O)n2nc(C(=O)O)cc12
Imax [4]: 100%
Imax [3]: 65%
IC50 (Beta-nerve growth factor): 47 µM
IC50 [5]: 110 µM

Compound: CC(=O)NCc1ncc(NC(=O)c2ccc(C(F)(F)F)c(-c3ccn(C)n3)c2)c(-c2ccccc2)n1
IC50 [11]: 4 nM

Compound: O=C1c2cccc3cc([N+](=O)[O-])cc(c23)C(=O)N1NCCO
ED50 (Rattus norvegicus [12]): 38 mg/kg
Imax [4]: 44%
ED50 (Rattus norvegicus [13]): 34.6 µg
Imax [3]: 6.2%
EC50 [14]: 22 µM
IC50 [15]: 5.88 µM
IC50 (Beta-nerve growth factor): 149 µM
ED50 (Rattus norvegicus [16]): 50 µg
IC50 [5]: > 300 µM

Further lines, with some results ahead:

Imax [4]: 100%
IC50 (Beta-nerve growth factor): 33 µM
Compound: Cc1cc2nc3c(=O)[nH]c(=O)nc-3n(C)c2cc1C=O
Imax [3]: 37%
IC50 [5]: 244 µM

IC50 [6]: > 10 µM
IC50 [7]: 50 nM
IC50 [8]: > 10 µM
Compound: O=C(O)c1ccc(Nc2cc(N3CCN(C4CCCCC4)CC3)c3noc4c3c2C(=O)c2ccccc2-4)cc1

IC50 [9]: 0.3 nM
IC50 [10]: 0.3 nM
Compound: COc1ccc(COc2ccc(Cn3c(N)nc4cc(-c5cnn(C)c5)ccc43)cc2OC)cc1

IC50 [1]: < 100 nM
Compound: COCCCc1cc(Cl)c(Cl)cc1NC(=O)Nc1c(C)c(-c2cnn(C)c2)nn1-c1ccccc1
